Measurements published in patent publication US20230278972A1, “SUBSTITUTED HALOALKYL SULFONANILIDE HERBICIDES” (FMC Corporation, priority 2020, published 2023).

Columns and labels:
Assay type in all cases: in vivo
[1] = test system: wheat (Triticum aestivum); assay: Test A postemergence, wheat; details: Postemergence, 0 to 100 scale (0 no effect, 100 complete control)
Excerpt: (§1) Seeds of plant species selected from barnyardgrass (Echinochloa crus-galli), kochia (Bassia scoparia), ragweed (common ragweed, Ambrosia artemisiifolia), Ryegrass, Italian (Italian ryegrass, Lolium multiflorum), Foxtail, Giant (giant foxtail, Setaria faberi), and pigweed (Amaranthus retroflexus) were planted into a blend of loam soil and sand and treated preemergence with a directed soil spray using test chemicals formulated in a non-phytotoxic solvent mixture which included a surfactant. At the same time, plants selected from these weed species and also wheat (Triticum aestivum), corn (Zea mays), blackgrass (Alopecurus myosuroides), and galium (catchweed bedstraw, Galium aparine) were planted in pots containing the same blend of loam soil and sand and treated with postemergence applications of test chemicals formulated in the same manner. Plants ranged in height from 2 to 10 cm and were in the one- to two-leaf stage for the postemergence treatment. […] A dash (-) response means no test result.

[2] = test system: ragweed (common ragweed, Ambrosia artemisiifolia); assay: Test A postemergence, ragweed; details: Postemergence, 0 to 100 scale (0 no effect, 100 complete control)
Excerpt: as §1

[3] = test system: Ryegrass, Italian (Italian ryegrass, Lolium multiflorum); assay: Test A postemergence, Ryegrass, Italian; details: Postemergence, 0 to 100 scale (0 no effect, 100 complete control)
Excerpt: as §1

[4] = test system: pigweed (Amaranthus retroflexus); assay: Test A postemergence, pigweed; details: Postemergence, 0 to 100 scale (0 no effect, 100 complete control)
Excerpt: as §1

[5] = test system: Foxtail, Giant (giant foxtail, Setaria faberi); assay: Test A postemergence, Foxtail, Giant; details: Postemergence, 0 to 100 scale (0 no effect, 100 complete control)
Excerpt: as §1

[6] = test system: Ryegrass, Italian (Italian ryegrass, Lolium multiflorum); assay: Test A preemergence, Ryegrass, Italian; details: Preemergence; for Plant response rating, Ryegrass, Italian: 0 to 100 scale (0 no effect, 100 complete control); for Ryegrass, Italian plant response rating: visual injury on 0 to 100 scale (0 no effect, 100 complete control), approximately 10 days
Excerpt: as §1

[7] = test system: barnyardgrass (Echinochloa crus-galli); assay: Test A preemergence, barnyardgrass; details: Preemergence; for Plant response rating, Barnyardgrass: 0 to 100 scale (0 no effect, 100 complete control); for Barnyardgrass plant response rating: visual injury on 0 to 100 scale (0 no effect, 100 complete control), approximately 10 days
Excerpt: as §1

[8] = test system: blackgrass (Alopecurus myosuroides); assay: Test A postemergence, blackgrass; details: Postemergence, 0 to 100 scale (0 no effect, 100 complete control)
Excerpt: as §1

[9] = test system: ragweed (common ragweed, Ambrosia artemisiifolia); assay: Test A preemergence, ragweed; details: Preemergence; for Plant response rating, Ragweed: 0 to 100 scale (0 no effect, 100 complete control); for Ragweed plant response rating: visual injury on 0 to 100 scale (0 no effect, 100 complete control), approximately 10 days
Excerpt: as §1

[10] = test system: galium (catchweed bedstraw, Galium aparine); assay: Test A postemergence, galium; details: Postemergence, 0 to 100 scale (0 no effect, 100 complete control)
Excerpt: as §1

[11] = test system: barnyardgrass (Echinochloa crus-galli); assay: Test A postemergence, barnyardgrass; details: Postemergence, 0 to 100 scale (0 no effect, 100 complete control)
Excerpt: as §1

corn (Zea mays) = assay: Test A postemergence, corn; details: Postemergence, 0 to 100 scale (0 no effect, 100 complete control)
Excerpt: as §1

kochia (Bassia scoparia) [12] = assay: Test A preemergence, kochia; details: Preemergence; for Plant response rating, Kochia: 0 to 100 scale (0 no effect, 100 complete control); for Kochia plant response rating: visual injury on 0 to 100 scale (0 no effect, 100 complete control), approximately 10 days
Excerpt: as §1

[13] = test system: Foxtail, Giant (giant foxtail, Setaria faberi); assay: Test A preemergence, Foxtail, Giant; details: Preemergence; for Plant response rating, Foxtail, Giant: 0 to 100 scale (0 no effect, 100 complete control); for Foxtail, Giant plant response rating: visual injury on 0 to 100 scale (0 no effect, 100 complete control), approximately 10 days
Excerpt: as §1

kochia (Bassia scoparia) [14] = assay: Test A postemergence, kochia; details: Postemergence, 0 to 100 scale (0 no effect, 100 complete control)
Excerpt: as §1

[15] = 500 g ai/ha, visual injury approx. 10 days
[16] = 125 g ai/ha, visual injury, approx. 10 days
[17] = 500 g ai/ha, visual injury vs untreated controls after approx. 10 days

| Compound | Plant response rating, Wheat ([1]; 125 g ai/ha) | Plant response rating, Wheat [1, 15] | Plant response rating, Ragweed ([2]; 125 g ai/ha) | Plant response rating, Ragweed [2, 15] | Plant response rating, Ryegrass, Italian ([3]; 125 g ai/ha) | Plant response rating, Ryegrass, Italian [3, 15] | Plant response rating, Pigweed ([4]; 125 g ai/ha) | Plant response rating, Pigweed [4, 15] | Plant response rating, Foxtail, Giant ([5]; 125 g ai/ha) | Plant response rating, Foxtail, Giant [5, 15] | Plant response rating, Ryegrass, Italian [6, 16] | Ryegrass, Italian plant response rating ([6]; 500 g ai/ha) | Plant response rating, Barnyardgrass [7, 16] | Barnyardgrass plant response rating ([7]; 500 g ai/ha) | Plant response rating, Blackgrass ([8]; 125 g ai/ha) | Plant response rating, Blackgrass [8, 15] | Plant response rating, Galium ([10]; 125 g ai/ha) | Plant response rating, Barnyardgrass ([11]; 125 g ai/ha) | Plant response rating, Corn (corn (Zea mays); 125 g ai/ha) | Plant response rating, Kochia (kochia (Bassia scoparia) [14]; 125 g ai/ha) | further results |
| --- | --- | --- | --- | --- | --- | --- | --- | --- | --- | --- | --- | --- | --- | --- | --- | --- | --- | --- | --- | --- | --- |
| CC(=O)N(c1cc(N2CCC3(CCCCC3)C2=O)c(C)cc1C)S(=O)(=O)C(F)(F)F [Compound 265] | 30 | 60 | 60 | 80 | 20 | 70 | 60 | 90 | 0 | 20 | 90 | 100 | 90 | 100 | 30 | 20 | 90 | 60 | 20 | 40 | Plant response rating, Ragweed [9, 16]: 90; Ragweed plant response rating ([9]; 500 g ai/ha): 90; Plant response rating, Galium [10, 15]: 90; Plant response rating, Barnyardgrass [11, 15]: 80; Plant response rating, Corn (corn (Zea mays); [15]): 60; Plant response rating, Kochia (kochia (Bassia scoparia) [12]; [16]): 90; Kochia plant response rating (kochia (Bassia scoparia) [12]; 500 g ai/ha): 90; Plant response rating, Foxtail, Giant [13, 16]: 100; Foxtail, Giant plant response rating ([13]; 500 g ai/ha): 100; Plant response rating, Kochia (kochia (Bassia scoparia) [14]; [15]): 50 |
| Cc1cc(Cl)c(NS(=O)(=O)C(F)(F)F)cc1C(=O)N1CCOCC1C (stereo not shown) [Compound 245] | 60 | 60 | 90 | 90 | 70 | 80 | 80 | 90 | 50 | 90 | 80 | 100 | 90 | 100 | 40 | 60 | 90 | 90 | 20 | 40 | Plant response rating, Ragweed [9, 16]: 90; Ragweed plant response rating ([9]; 500 g ai/ha): 90; Plant response rating, Galium [10, 15]: 90; Plant response rating, Barnyardgrass [11, 15]: 90; Plant response rating, Corn (corn (Zea mays); [15]): 60; Plant response rating, Kochia (kochia (Bassia scoparia) [12]; [16]): 80; Kochia plant response rating (kochia (Bassia scoparia) [12]; 500 g ai/ha): 80; Plant response rating, Foxtail, Giant [13, 16]: 100; Foxtail, Giant plant response rating ([13]; 500 g ai/ha): 100; Plant response rating, Kochia (kochia (Bassia scoparia) [14]; [15]): 60 |
| C#CCN(C)C(=O)c1cc(N(S(=O)(=O)C(F)(F)F)S(=O)(=O)C(F)(F)F)c(C)c(F)c1C [Compound 147] | 30 | – | 90 | – | 30 | – | 70 | – | 70 | – | – | – | – | – | 0 | – | 80 | 90 | 10 | 50 | Wheat plant response rating [1, 17]: 60; Ragweed plant response rating [2, 17]: 90; Ryegrass, Italian plant response rating [3, 17]: 70; Pigweed plant response rating [4, 17]: 90; Foxtail, Giant plant response rating [5, 17]: 90; Ryegrass, Italian plant response rating ([6]; 125 g ai/ha): 90; Plant response rating, Ryegrass, Italian ([6]; 500 g ai/ha): 100; Barnyardgrass plant response rating ([7]; 125 g ai/ha): 90; Plant response rating, Barnyardgrass ([7]; 500 g ai/ha): 100; Blackgrass plant response rating [8, 17]: 30; Ragweed plant response rating ([9]; 125 g ai/ha): 90; Plant response rating, Ragweed ([9]; 500 g ai/ha): 90; Galium plant response rating [10, 17]: 90; Barnyardgrass plant response rating [11, 17]: 90; Corn plant response rating (corn (Zea mays); [17]): 80; Kochia plant response rating (kochia (Bassia scoparia) [12]; 125 g ai/ha): 70; Plant response rating, Kochia (kochia (Bassia scoparia) [12]; 500 g ai/ha): 90; Foxtail, Giant plant response rating ([13]; 125 g ai/ha): 90; Plant response rating, Foxtail, Giant ([13]; 500 g ai/ha): 100; Kochia plant response rating (kochia (Bassia scoparia) [14]; [17]): 70 |
| COC1CCN(C(=O)c2cc(N(S(=O)(=O)C(F)(F)F)S(=O)(=O)C(F)(F)F)c(C)cc2C)C1 (stereo not shown) [Compound 138] | 30 | – | 30 | – | 0 | – | 90 | – | – | – | – | – | – | – | – | – | – | – | – | – | – |
